Experimental data from PubChem BioAssay AID1259411 (Chemical Carcinogenesis Research Information System (CCRIS), 2018).
Activity calls are given as the source filed them. No rule for the calls is given here.

Test system: rodent carcinogenicity bioassays, tumor incidence
Experiment: CCRIS carcinogenicity studies
How it was run: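 Archive of carcinogenicity, mutagenicity, tumor promotion and tumor inhibition results drawn from journals, NCI reports and other sources, expert-reviewed; covers 1985-2011 and is no longer updated.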

For O=C1NC(=O)C(c2ccccc2)(c2ccccc2)N1, the carcinogen call (Species: MOUSE, Route: INTRAPERITONEAL, ORAL, Tumor Site: Type of Lesion: HEMATOPOIETIC SYSTEM (LEUKEMIA), LYMPHATIC SYSTEM: LYMPHOMA) was “active; positive”, the carcinogen call (Species: MOUSE, Strain/Sex: B6C3F1/FEMALE, Route: IN UTERO, ORAL, Dose: 0, 21 PPM IN DIET FED TO MOTHERS 1 WK BEFORE BREEDING, THROUGH BREEDING, GESTATION AND LACTATION, THEN DIETS WITH 60 PPM) was “inactive; negative” and the carcinogen call (Species: MOUSE, Strain/Sex: B6C3F1/FEMALE, Route: IN UTERO, ORAL, Dose: 0, 70 PPM IN DIET FED TO MOTHERS 1 WK BEFORE BREEDING, THROUGH BREEDING, GESTATION AND LACTATION, THEN DIETS WITH 200 PP) was “inactive; negative”. The carcinogen call (Species: MOUSE, Strain/Sex: B6C3F1/FEMALE, Route: IN UTERO, ORAL, Dose: 0, 210 PPM IN DIET FED TO MOTHERS 1 WK BEFORE BREEDING, THROUGH BREEDING, GESTATION AND LACTATION, THEN DIETS WITH 0, 20, Tumor Site: Type of Lesion: LIVER: HEPATOCELLULAR ADENOMA, HEPATOCELLULAR CARCINOMA) was “active; positive”, the carcinogen call (Species: MOUSE, Strain/Sex: B6C3F1/FEMALE, Route: ORAL, Dose: 0, 200, 600 PPM IN DIET FOR 2 YR (STUDY DURATION: 2 YR), Dose: 0, 200, 600 PPM IN DIET FOR 2 YR (STUDY DURATION: 2 YR), Tumor Site: Type of Lesion: LIVER: HEPATOCELLULAR ADENOMA, HEPATOCELLULAR CARCINOMA) was “active; positive” and the carcinogen call (Species: MOUSE, Strain/Sex: B6C3F1/MALE, Route: IN UTERO, ORAL, Dose: 0, 21 PPM IN DIET FED TO MOTHERS 1 WK BEFORE BREEDING, THROUGH BREEDING, GESTATION AND LACTATION, THEN DIETS WITH 30 PPM) was “inactive; negative”. The carcinogen call (Species: MOUSE, Strain/Sex: B6C3F1/MALE, Route: IN UTERO, ORAL, Dose: 0, 70 PPM IN DIET FED TO MOTHERS 1 WK BEFORE BREEDING, THROUGH BREEDING, GESTATION AND LACTATION, THEN DIETS WITH 100 PP) was “inactive; negative”, the carcinogen call (Species: MOUSE, Strain/Sex: B6C3F1/MALE, Route: IN UTERO, ORAL, Dose: 0, 210 PPM IN DIET FED TO MOTHERS 1 WK BEFORE BREEDING, THROUGH BREEDING, GESTATION AND LACTATION, THEN DIETS WITH 0, 10) was “inactive; negative” and the carcinogen call (Species: MOUSE, Strain/Sex: B6C3F1/MALE, Route: ORAL, Dose: 0, 100, 300 PPM IN DIET FOR 2 YR (STUDY DURATION: 2 YR), Dose: 0, 100, 300 PPM IN DIET FOR 2 YR (STUDY DURATION: 2 YR)) was “inactive; negative”. The carcinogen call (Species: RAT, Strain/Sex: F344/DUCRJ/FEMALE, Route: ORAL, Dose: 0, 0.025, 0.05% IN BASAL DIET FOR 2 YR (STUDY DURATION: 112 WK), Dose: 0, 0.025, 0.05% IN BASAL DIET FOR 2 YR (STUDY DURATION: 112 WK)) was “inactive; negative”, the carcinogen call (Species: RAT, Strain/Sex: F344/DUCRJ/MALE, Route: ORAL, Dose: 0, 0.025, 0.05% IN BASAL DIET FOR 2 YR (STUDY DURATION: 112 WK), Dose: 0, 0.025, 0.05% IN BASAL DIET FOR 2 YR (STUDY DURATION: 112 WK)) was “inactive; negative” and the carcinogen call (Species: RAT, Strain/Sex: F344/FEMALE, Route: IN UTERO, ORAL, Dose: 0, 63 PPM IN DIET FED TO MOTHERS 1 WK BEFORE BREEDING, THROUGH BREEDING, GESTATION AND LACTATION, THEN DIETS WITH 240 PP) was “inactive; negative”. The carcinogen call (Species: RAT, Strain/Sex: F344/FEMALE, Route: IN UTERO, ORAL, Dose: 0, 210 PPM IN DIET FED TO MOTHERS 1 WK BEFORE BREEDING, THROUGH BREEDING, GESTATION AND LACTATION, THEN DIETS WITH 800 P) was “inactive; negative”, the carcinogen call (Species: RAT, Strain/Sex: F344/FEMALE, Route: IN UTERO, ORAL, Dose: 0, 630 PPM IN DIET FED TO MOTHERS 1 WK BEFORE BREEDING, THROUGH BREEDING, GESTATION AND LACTATION, THEN DIETS WITH 0, 80) was “inactive; negative” and the carcinogen call (Species: RAT, Strain/Sex: F344/FEMALE, Route: ORAL, Dose: 0, 800, 2400 PPM IN DIET FOR 2 YR (STUDY DURATION: 2 YR), Dose: 0, 800, 2400 PPM IN DIET FOR 2 YR (STUDY DURATION: 2 YR)) was “inactive; negative”. For the same compound, the carcinogen call (Species: RAT, Strain/Sex: F344/MALE, Route: IN UTERO, ORAL, Dose: 0, 63 PPM IN DIET FED TO MOTHERS 1 WK BEFORE BREEDING, THROUGH BREEDING, GESTATION AND LACTATION, THEN DIETS WITH 240 PP) was “inactive; negative”, the carcinogen call (Species: RAT, Strain/Sex: F344/MALE, Route: IN UTERO, ORAL, Dose: 0, 210 PPM IN DIET FED TO MOTHERS 1 WK BEFORE BREEDING, THROUGH BREEDING, GESTATION AND LACTATION, THEN DIETS WITH 800 P) was “inactive; negative” and the carcinogen call (Species: RAT, Strain/Sex: F344/MALE, Route: IN UTERO, ORAL, Dose: 0, 630 PPM IN DIET FED TO MOTHERS 1 WK BEFORE BREEDING, THROUGH BREEDING, GESTATION AND LACTATION, THEN DIETS WITH 0, 80) was “inactive; negative”. For the same compound, the carcinogen call (Species: RAT, Strain/Sex: F344/MALE, Route: ORAL, Dose: 0, 800, 2400 PPM IN DIET FOR 2 YR (STUDY DURATION: 2 YR), Dose: 0, 800, 2400 PPM IN DIET FOR 2 YR (STUDY DURATION: 2 YR), Tumor Site: Type of Lesion: LIVER: HEPATOCELLULAR ADENOMA OR CARCINOMA) was “equivocal”.
For O=C1NCCN1/N=C/c1ccc([N+](=O)[O-])o1, the carcinogen call (Species: RAT, Route: ORAL, Tumor Site: Type of Lesion: LYMPHATIC SYSTEM: LYMPHOBLASTIC LYMPHOMA, MAMMARY GLAND) was “active; positive”.
With CC(C)=CCl the carcinogen call (Species: MOUSE, Strain/Sex: B6C3F1/FEMALE, Route: GAVAGE, Dose: 0, 100, 200 MG/KG IN CORN OIL 5 D/WK FOR 102 WK, Dose: 0, 100, 200 MG/KG IN CORN OIL 5 D/WK FOR 102 WK, Tumor Site: Type of Lesion: FORESTOMACH: SQUAMOUS CELL CARCINOMA, SQUAMOUS CELL PAPILLOMA) was “active; positive”, the carcinogen call (Species: MOUSE, Strain/Sex: B6C3F1/MALE, Route: GAVAGE, Dose: 0, 100, 200 MG/KG IN CORN OIL 5 D/WK FOR 102 WK, Dose: 0, 100, 200 MG/KG IN CORN OIL 5 D/WK FOR 102 WK, Tumor Site: Type of Lesion: FORESTOMACH: SQUAMOUS CELL CARCINOMA, SQUAMOUS CELL PAPILLOMA, PREPUTIAL GLAND: SQUAMOUS CELL CARCINOMA) was “active; positive” and the carcinogen call (Species: RAT, Strain/Sex: F344/FEMALE, Route: GAVAGE, Dose: 0, 100, 200 MG/KG IN CORN OIL 5 D/WK FOR 103 WK, Dose: 0, 100, 200 MG/KG IN CORN OIL 5 D/WK FOR 103 WK, Tumor Site: Type of Lesion: NASAL CAVITY: CARCINOMA (NOS), CARCINOMA (NOS) OR SQUAMOUS CELL CARCINOMA, ADENOCARCINOMA, ESOPHAGUS: SQUAMOUS CELL CARC) was “active; positive”. For the same compound, the carcinogen call (Species: RAT, Strain/Sex: F344/MALE, Route: GAVAGE, Dose: 0, 100, 200 MG/KG IN CORN OIL 5 D/WK FOR 103 WK, Dose: 0, 100, 200 MG/KG IN CORN OIL 5 D/WK FOR 103 WK, Tumor Site: Type of Lesion: NASAL CAVITY: CARCINOMA (NOS), SQUAMOUS CELL CARCINOMA, ADENOCARCINOMA, ESOPHAGUS: SQUAMOUS CELL PAPILLOMA, SQUAMOUS CEL) was “active; positive”.
